The text below walks through data of patent publication US20140230091A1, “MODIFIED PLANTS WITH INCREASED OIL CONTENT” (BROOKHAVEN SCIENCE ASSOCIATES, LLC, priority 2011, published 2014).

For experiment [1], the system named is B. napus cells. Nature of the experiment: Quantification of fatty acid uptake from 13C-oleoyl-Tween by B. napus cells. As to conditions: 10 mM 13C-oleoyl-Tween. The class given is cell-based, Brassica napus. The protocol: Lipids were extracted from up to 100 mg fresh weight of frozen cells by homogenizing twice in 500 μL of methanol:chloroform:formic acid (20:10:1 v/v) using glass beads. The combined organic solvent was extracted with 500 μL of 1 M KCl, 0.2 M H3PO4 and the organic phase was recovered, dried under N2, and resuspended in hexane. Lipid classes were separated by TLC using silica gel G TLC Uniplates (Analtech, Newark, Del., USA) with hexane:diethylether:acetic acid (80:20:1, v/v) for neutral lipids or with acetone:toluene:water (91:30:7 v/v) with 0.15 M ammonium sulfate impregnated plates for polar lipids. Loading was equivalent to 10 or 20 mg fresh weight. Lipids were visualized with iodine vapor.
Fatty acid quantification was done by analysis of fatty acid methyl esters (FAMEs). […] FAMEs resuspended in hexane were analyzed with an HP6890 gas chromatograph-flame ionization detector (Agilent Technologies) or an HP5890 gas chromatograph-mass spectrometer (Hewlett-Packard) fitted with 60 m×250 μm SP-2340 capillary columns (Supelco). […]
1-^13C-oleic acid was obtained from Cambridge Isotope Laboratories (Andover, Mass., USA). […] Lipid extraction and GC/MS was done as described above. ^13C-fatty acids were detected and quantified and corrected for natural isotope abundance as previously described (Schwender et al. 2003, J Biol Chem, 278, 29442-29453). […]

The subject of experiment [2] is B. napus cells. Nature of the experiment: Quantification of free fatty acid, acyl-ACP and acyl-CoA pools in cells. It counts as cell-based, Brassica napus. To be noted: cells fed 13C-oleoyl-Tween, at 3 hours. The procedure: Free fatty acids were extracted from tissue by quenching ˜300 mg of frozen cells in 2 mL boiling isopropanol for 5 min. Once cooled, 2 mL of 0.9% NaCl was added and lipids were extracted twice with 4 mL of hexane. Neutral lipids were separated by TLC and free fatty acids were scraped, made into FAMEs, and analyzed by GC-FID or GC-MS as described above. Acyl-CoAs were extracted from ˜15 mg FW of cells and quantified as previously described (Larson and Graham 2001, Plant J, 25, 115-125). Acyl-ACPs were extracted and quantified as previously described (Kopka, Ohlrogge and Jaworski 1995, Anal Biochem, 224, 51-60) with the following modifications: 1) Internal standards used were 11:0-CoA (Sigma) and 17:0—ACP made from Spinach ACP as previously described (Broadwater and Fox 1999, Protein Expr Purif, 15, 314-326). 2) Fully dissolving TCA precipitated proteins required three extractions with MOPS buffer rather than just one.
1986 Plant Physiol, 82, 771-779). Free fatty acids can be activated by esterification to CoA or ACP before being deposited in cellular lipids. Steady state pools acyl-ACP and acyl-CoA as well as free fatty acids (FFA) were measured in cells fed Tween-80. After three hours of feeding, 18:1 FFA appeared where there was none detected in untreated cells (FIG. 9a). […] In a separate experiment designed to distinguish the incorporation of fatty acids from Tween from secondary effects of feedback inhibition, FFA and acylACPs were analyzed in cells fed ^13C-oleoyl-Tween. […] First, the in vivo concentrations of these intermediates were calculated based on the range of values in FIG. 9 and the water content of the cells. […] However, considering that acyl-ACPs are restricted to the plastid, the volume of which in developing embryos was determined to be 10% of the cell (Mansfield and Briarty 1992, Can J Bot, 70, 151-164), the estimate increased to 5-10 μM. […] Thioesterase activity was measured using the same conditions as the ACCase assay. […]

In experiment [3] the test system is ACCase. Nature of the experiment: ACCase enzyme assay on crude cell extracts. The class given is biochemical, Brassica napus. The procedure:
All chemicals were obtained from Sigma and radioisotopes from American Radiolabeled Chemicals. ACCase activity was measured as the acetyl-CoA dependent incorporation of ^14C—NaHC03 into acid and stable products. Crude cell extracts were prepared by grinding fresh cells in 3 volumes (w/v) of 50 mM Tris-Cl, pH 7.5, 100 mM KCl, 5 mM MgCl2, 1 mM DTT, 0.1% TritonX-100, 10% glycerol, and plant protease inhibitor cocktail (Sigma). Homogenate was gently mixed on ice for 10 min and then centrifuged for 5 min at 3000 g. Desalting of extracts was done with PD-10 columns (GE Life Sciences). […] Reactions were initiated by the addition of 5 μlL cell extract and were stopped by the addition of 15 μL 12 N HCL. The contents were dried completely at 55° C. and the solids were resuspended in 30 μL water and counted by liquid scintillation spectroscopy. Minus acetyl-CoA controls were always included. Assays went for 30 min, except when measuring the effects of metabolites (10 min). Metabolites were added to the reaction immediately after cell extract to preserve labile thioester bonds. FFA stock solutions were made in ethanol and acyl-CoAs were suspended in water.

For experiment [4], the system named is fatty acid synthesis in B. napus cells. Nature of the experiment: 14C-acetate / 14C-malonate labeling of lipids (feedback inhibition of fatty acid synthesis). To be noted: for Relative 14C-acetate incorporation (% control): relative to a control sample without any Tweens, mean of three repeats ± SD. The class given is cell-based, Brassica napus. The procedure:
All radioisotopes were obtained from American Radiolabeled Chemicals (St. Louis, Mo. USA). Labeling was conducted on cells 5 days after subculturing with a culture density of ˜20 mg FW mL^−1 and that had medium refreshed 16 h prior. For labeling, three 1 mL aliquots of cells were carefully removed from each flask and were labeled with either 0.2 μCi of 1,2-^14C-acetate (50-60 mCi mmol^−1) or 2-^14C-malonate (40-60 mCi mmol^−1) for 15 minutes at 25° C. with occasional shaking. Haloxyfop (Sigma) was dissolved in DMSO and added 30 min prior to labeling. Lipids were extracted and separated by TLC as described above. Radioactivity was detected by phosphorimaging and was quantified using ImageQuant software (GE Healthcare, Piscataway, N.J., USA). Incorporation of label into individual fatty acids was determined by making FAMEs as described above, separating the methyl esters by TLC as described in (Koo, Fulda, Browse and Ohlrogge 2005, Plant J, 44, 620-632) and measuring radioactivity by phosphorimaging.
Feedback inhibition of fatty acid synthesis was measured by the addition of a ^14C-acetate tracer. […] Sterol synthesis is dependent on acetyl-CoA and ATP, both of which are required for fatty acid synthesis. Therefore, if fatty acid synthesis is inhibited due to substrate limitation; so should be sterol biosynthesis. ^14C-acetate incorporation into sterols was unaffected by Tween-80 feeding, while incorporation into free fatty acids mirrored that of total lipids (FIG. 5), showing that the effect is restricted to fatty acid synthesis. […] Three hour time points were used for the remainder of this study to separate the period of maximum feedback inhibition from any lipid homeostatic mechanisms arising from the gross fatty acid compositional changes caused by long term Tween-80 feeding.
Plants contain plastidic and cytosolic ACCase and F AS enzyme systems, both of which are capable of incorporating ^14C-acetate into fatty acids. Comparing the distribution of label in individual fatty acid species can therefore provide information on the relative contribution of these pathways. […] The degree to which ^14C-acetate incorporation is inhibited by haloxyfop is proportional to cytosolic elongation activity, whereas haloxyfop-resistant incorporation is from the de nova pathway inside the plastid.
To separate these possibilities, we exploited the fact that exogenous malonate can be converted to malonyl-CoA and used by FAS, bypassing the ACCase reaction (Kannangara et al. 1973, Plant Physiol, 52, 156-161). If ACCase is the only point of inhibition then the rate of ^14C-malonate labeling of de novo fatty acids should be the same in cultures with or without Tween-80. […] Therefore ACCase, and not F AS, is inhibited by Tween-80 feeding. When combined, the data from FIG. 6 unambiguously identify plastidic ACCase as the target of Tween-80 induced feedback inhibition.

The target in experiment [5] is Brassica napus plastidic (heteromeric) acetyl-CoA carboxylase, endogenous enzyme in crude cell extracts (Brassica napus). Nature of the experiment: cell-based or functional assay.

Turning to 1-^13C-oleoyl-Tween, in experiment [1] (after three hours), the “13C-18:1 as proportion of the total 18:1” value is given as “about 10%”. Also, the “proportion of 13C-label in 18-carbon fatty acids” value in experiment [1] (by 48 hours) is recorded as “about 70%”. In addition, in experiment [2], the “percent of 18:1-ACP containing 13C-oleic acid” value turned out to be 46.2±4.2% and the “percent of 18:1 FFA containing 13C-oleic acid” value is given as 99.1±2.2%.
For `O=C(O)CCC(=O)C(=O)O` [2-oxoglutarate], the “ACCase activity, difference between control and Tween-80 fed cultures” value in experiment [3] (in the presence of 5 mM 2-oxoglutarate) is listed as “no differences”.
As to `CCCCCCCC/C=C\CCCCCCCC(=O)SCCNC(=O)CCNC(=O)[C@H](O)C(C)(C)COP(=O)(O)OP(=O)(O)OC[C@H]1O[C@@H](n2cnc3c(N)ncnc32)[C@H](O)[C@@H]1OP(=O)(O)O` [18:1-CoA, 18:1-Coenzyme A], the “extent of ACCase inhibition” value in experiment [3] (crude extract, physiological range of concentrations) is “partial”.
`CC(Oc1ccc(Oc2ncc(C(F)(F)F)cc2Cl)cc1)C(=O)O` (centres unmarked) [haloxyfop]: the “reduction in ACCase activity” value in experiment [3] (crude extracts treated with haloxyfop) is “about 15%”.
Take `O=C(O)CC(=O)O` [malonate]: the “inhibition of 14C-acetate incorporation on malonate feeding” value in experiment [4] (malonate feeding) is “does not cause inhibition”.
In experiment [5], “B. napus 18:1-ACP (18:1-Acyl Carrier Protein made from BnACP, GenBank:X13127.1, with 6x his-tag)” showed an ACCase activity in crude B. napus cell extracts (acetyl-CoA dependent incorporation of 14C-NaHCO3, 10 min assay) of over 3 µM.
Consider Tween-18:1, for which the “inhibition of acetate labeling of lipids” value in experiment [4] (in words) is given as “maximum inhibition”. In experiment [4], the “Relative 14C-acetate incorporation (% control)” value stood at 51.5 ± 6.7 % control.
As for Tween-40, in experiment [4], the “Relative 14C-acetate incorporation (% control)” value stood at 84.4 ± 3.4 % control.
Regarding Tween-60, the “Relative 14C-acetate incorporation (% control)” value in experiment [4] is recorded as 85.9 ± 3.4 % control.
Still for that read-out and setting: the same measure for Tween-85: 48.8 ± 5.9 % control.
